Tests used:
[1] = Solubility in ethanol (coating solvent); type: physicochemical
Excerpt: In the following Example, ethanol is chosen as the solvent of choice. The coating to be applied to the stent is a bioactive agent combination, consisting of a mTOR inhibitor and a glucocorticoid. The mTOR inhibitor is zotarolimus. The glucocorticoid is fluocinolone. […] Persons having ordinary skill in the art of polymer chemistry can easily pair the appropriate solvent system to the polymer-bioactive agent(s) combination and achieve optimum results with no more than routine experimentation.

[2] = system: monocyte chemoattractant protein-1 (MCP-1); experiment: Relative gene expression of MCP-1 (mRNA) in stented porcine vessels; type: in vivo; conditions: local delivery from a vascular stent; 7 days after stenting; compared to a bare metal stent; measured on mRNA; FIG. 1A
Excerpt: FIG. 1: Relative gene expression of (A) MCP-1 and (B) TF in porcine vessels that were stented with zotarolimus coated stents compared with uncoated stents and stents coated with fluocinolone. The drug doses are indicated in ug/mm^2. FIG. 2: Relative gene expression of MCP-1 in porcine vessels that were stented with stents coated with zotarolimus alone compared to stents coated with zotarolimus combined with fluocinolone or fluocinolone alone. The drug doses are indicated in ug/mm^2. […] Furthermore, following stent placement, MCP-1 levels in plasma increase after several days and are more likely to be elevated at follow-up 6 months later in patients who have restenosis. In one embodiment, a dose titration experiment can be conducted to determine the optimal dosage for combination of zotarolimus (e.g. anti-proliferative drug) and fluocinolone (e.g. anti-inflammatory drug). At an optimal dose zotarolimus can inhibit neointimal hyperplasia via inhibition of smooth muscle cells proliferation, while maintaining low levels of MCP-1 and TF due to the inhibitory effect of fluocinolone. […] The stented vessels can be excised 7 days post stenting and the expression of TF and MCP-1 can be evaluated via real time-PCR using porcine primers and probes, allowing the quantative measurement at transcriptional level.

tissue factor (TF) = experiment: Relative gene expression of TF in stented porcine vessels; type: in vivo; conditions: local delivery from a vascular stent; several days after stenting; FIG. 1B
Excerpt: FIG. 1: Relative gene expression of (A) MCP-1 and (B) TF in porcine vessels that were stented with zotarolimus coated stents compared with uncoated stents and stents coated with fluocinolone. The drug doses are indicated in ug/mm^2. As such, delivery of zotarolimus locally from a vascular stent increases the expression of TF in stented vessels. The increased expression can be seen several days after the stenting procedure was preformed (FIG. 1B). In one embodiment, a dose titration experiment can be conducted to determine the optimal dosage for combination of zotarolimus (e.g. anti-proliferative drug) and fluocinolone (e.g. anti-inflammatory drug). At an optimal dose zotarolimus can inhibit neointimal hyperplasia via inhibition of smooth muscle cells proliferation, while maintaining low levels of MCP-1 and TF due to the inhibitory effect of fluocinolone. The evaluation of MCP-1 and TF can be performed by conducting pre-clinical, porcine study using stents loaded with escalating doses of at least zotarolimus or in combination with escalating dosages of fluocinolone and evaluating the expression of MCP-1 and TF in the vessels stented with these stents. […] The stented vessels can be excised 7 days post stenting and the expression of TF and MCP-1 can be evaluated via real time-PCR using porcine primers and probes, allowing the quantative measurement at transcriptional level.

Row | SMILES | solubility in ethanol [1] | expression of monocyte chemoattractant protein-1 (MCP-1) in stented vessels [2] | expression of TF in stented vessels (tissue factor (TF))
1 | CC1(C)O[C@@H]2C[C@H]3[C@@H]4C[C@H](F)C5=CC(=O)C=C[C@]5(C)[C@@]4(F)[C@@H](O)C[C@]3(C)[C@]2(C(=O)CO)O1 [fluocinolone] | freely soluble |  | 
2 | CO[C@H]1C[C@@H]2CC[C@@H](C)[C@@](O)(O2)C(=O)C(=O)N2CCCC[C@H]2C(=O)O[C@H]([C@H](C)C[C@@H]2CC[C@H](n3cnnn3)[C@H](OC)C2)CC(=O)[C@H](C)/C=C(\C)[C@@H](O)[C@@H](OC)C(=O)[C@H](C)C[C@H](C)/C=C/C=C/C=C/1C [zotarolimus] | freely soluble | increased | increases

Reference: patent US20100092534A1, “Combination Local Delivery Using a Stent” (Medtronic Vascular, Inc., priority 2008, published 2010)
